From US5808060A, “Fused isoindolones” (Cephalon, Inc., priority 1996, dated 1998)
pIC50: −log10 of the molar value.

Legend:
protein kinase C = assay: PKC Activity Inhibition Assay; assay type: biochemical
Description: Fused isoindolones inhibited the activity of protein kinase C (Table VI). The protein kinase C assay has been disclosed (Murakata et al., U.S. Pat. No. 4,923,986; Kikkawa et al., J. Biol. Chem. 257: 13341-13348 (1982)). The assay was performed with several concentrations of fused isoindolones. The concentration at which protein kinase C was 50% inhibited (IC50) was determined.

[1] = test system: basal forebrain cultures (ChAT activity); assay: Basal Forebrain ChAT Activity Assay; assay type: cell-based, rat; settings: preliminary assays; ChAT assessed 5 days after plating
Description: Fused isoindolone derivatives were tested for the ability to increase ChAT activity of basal forebrain cultures.
Methods: The basal forebrain was dissected from rat embryos (day 17 or 18 embryos) and the cells were dissociated with a neutral protease (Dispase™, Collaborative Research). Neurons were plated at a density of 5×10^4 cells/well (1.5×10^5 cells/cm^2) in poly-l-ornithine and laminin coated plates. Cells were cultured in serum-free N2 medium containing 0.05% BSA at 37° C. in a humidified atmosphere, 5% CO2 /95% air. ChAT activity was assessed 5 days after plating by using the ChAT assay as described in Example III(A)(1).

[2] = test system: dissociated rat embryonic spinal cord culture (ChAT activity); assay: Spinal Cord ChAT Activity Assay; assay type: cell-based; settings: after 2-3 hour plating period; single application; ChAT measured 48 hours later; control cultures not treated
Source text: As noted, ChAT is a specific biochemical marker for functional cholinergic neurons. Cholinergic neurons represent the major cholinergic input into the hippocampal formation, olfactory nucleus, interpeduncular nucleus, cortex, amygdala, and parts of the thalamus. In the spinal cord, the motor neurons are cholinergic neurons which contain ChAT (Phelps et al., J. Comp. Neurol. 273: 459-472 (1988)). ChAT activity has been used to study the effects of neurotrophins (e.g., NGF or NT-3) on the survival and/or function of cholinergic neurons. The ChAT assay also serves as an indication of the regulation of ChAT levels within cholinergic neurons.
Fused isoindolone derivatives increased ChAT activity in the dissociated rat embryonic spinal cord culture assay (FIG. 1). […]
Methods: Fetal rat spinal cord cells were dissociated, and experiments were performed as described (Smith et al., J. Cell Biology 101: 1608-1621 (1985); Glicksman et al., J. Neurochem. 61: 210-221 (1993)). […] ChAT activity was measured after 2 days in vitro using a modification of the Fonnum procedure (Fonnum, J. Neurochem. 24: 407-409 (1975)) according to McManaman et al. and Glicksman et al. (McManaman et al., Developmental Biology 125: 311-320 (1988); Glicksman et al., J. Neurochem. 61: 210-221 (1993)).

trkA tyrosine kinase = trkA tyrosine kinase (Homo sapiens, UniProt P04629); assay: trkA Tyrosine Kinase Activity Inhibition Assay (ELISA); assay type: biochemical; settings: PLCγ/pGEX substrate, 16 μM ATP, 37° C., 15 min, read-out: trk A INHIBITION IC50
Chain of trkA tyrosine kinase (P04629 33-796): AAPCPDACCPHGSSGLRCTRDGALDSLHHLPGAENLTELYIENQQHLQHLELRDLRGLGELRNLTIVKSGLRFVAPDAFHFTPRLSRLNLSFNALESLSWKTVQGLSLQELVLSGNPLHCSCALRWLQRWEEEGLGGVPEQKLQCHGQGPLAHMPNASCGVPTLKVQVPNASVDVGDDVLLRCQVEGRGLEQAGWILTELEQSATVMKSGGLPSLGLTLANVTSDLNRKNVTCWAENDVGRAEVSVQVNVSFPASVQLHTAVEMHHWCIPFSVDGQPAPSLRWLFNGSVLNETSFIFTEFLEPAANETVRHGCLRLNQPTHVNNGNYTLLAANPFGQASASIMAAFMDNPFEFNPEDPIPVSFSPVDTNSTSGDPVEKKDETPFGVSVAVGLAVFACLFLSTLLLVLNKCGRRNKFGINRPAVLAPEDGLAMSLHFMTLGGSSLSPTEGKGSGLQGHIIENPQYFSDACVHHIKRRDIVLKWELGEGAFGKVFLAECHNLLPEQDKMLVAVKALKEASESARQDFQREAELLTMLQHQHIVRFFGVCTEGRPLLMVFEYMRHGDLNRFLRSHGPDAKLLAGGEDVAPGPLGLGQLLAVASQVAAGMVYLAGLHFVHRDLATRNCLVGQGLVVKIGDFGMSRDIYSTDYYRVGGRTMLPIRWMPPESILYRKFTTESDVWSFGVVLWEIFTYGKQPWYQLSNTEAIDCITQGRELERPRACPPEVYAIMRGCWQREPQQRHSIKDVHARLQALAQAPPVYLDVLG
Description: Fused isoindolones inhibited trkA tyrosine kinase activity as determined by ELISA. trkA is a high affinity receptor for neurotrophins. Fused isoindolones were added to 96-well microtiter plates that were previously coated with a phosphorylation substrate (phospholipase C-γ (PLCγ)/pGEX fusion protein) (see Rotin, et al., 11 EMBO J. 559, 1992). These compounds were then tested for the ability to inhibit substrate phosphorylation by the trkA tyrosine kinase.
Methods: 96-well ELISA plates (Nunc) were coated with 100 μl/well of the phosphorylation substrate (40 μg/ml) PLCγ/pGEX fusion protein) in 20 mM Tris, pH 7.6, 137 mM NaCl, and 0.02% NaN3 overnight at 4° C. […] Plates were washed three times with TBST, followed by two washes with TBS (TBST sans Tween-20). Fused pyrrolocarbozoles were then added at various concentrations to a reaction mixture (50 mM HEPES, pH 7.4, 5 mM MnCl2, 5 mM MgCl2, 140 mM NaCl, 16 μM ATP, and 15 ng trkA in a total volume of 100 μL.). As a negative control, 100 mM EDTA was included in the reaction solution. The plates were then incubated at 37° C. for 15 min. The detection antibody, monoclonal anti-phosphotyrosine antibody (UBI), was added at a dilution of 1:2000 in TBST, and incubated for 1 hour at 37° C. […] The colored product was read at 490 nm in a microplate reader (Biotek).

| pIC50 (protein kinase C) | pIC50 (trkA tyrosine kinase) | SMILES | effect on basal forebrain ChAT activity [1] | increased ChAT activity over control cultures (spinal cord) [2] |
| --- | --- | --- | --- | --- |
| 6.19 |  | O=C1NC(=O)c2c1c1c(c3c2-c2ccccc2C3)Cc2ccccc2-1 [Compound I-1, 1H-Indenyl[2,3-c]-1H-indenyl[2,3-e]isoindol-1,3-dione] |  |  |
|  |  | O=C1NCc2c1c1c3ccccc3sc1c1sc3ccccc3c21 [Compound I-4, Benzothieno[2,3-c]benzothieno[2,3-e]isoindol-1-one] | did not increase ChAT activity |  |
|  |  | O=C1NC(=O)c2c1c1c3ccccc3sc1c1sc3ccccc3c21 [Compound I-3, Benzothieno[2,3-c]benzothieno[2,3-e]isoindol-1,3-dione] | did not increase ChAT activity |  |
| 5.70 | 6.72 | O=C1NCc2c1c1c(c3c2-c2ccccc2C3)Cc2ccccc2-1 [Compound I-2, 1H-Indenyl[2,3-c]-1H-indenyl[2,3-e]-3H-isoindol-1-one] |  | 150 % over control |
